Experimental data reported in PMC9220408, “Enhanced Antibacterial Activity of Dermaseptin through Its Immobilization on Alginate Nanoparticles—Effects of Menthol and Lactic Acid on Its Potentialization” (Antibiotics, 2022).
Ends that are not written are not given here.

Assays:
[1] = system: IPEC-1 cells; experiment: Cytotoxicity assay (CCK8); details: 24 h, 37 °C, CCK8, % of non-treated cells
Protocol: The cytotoxicity assay was performed as previously reported. Briefly, human colon carcinoma (HT29) and porcine intestinal (IPEC-1) cells (Sigma-Aldrich) were cultivated in Dulbecco’s Modified Eagle Medium (DMEM, Gibco, Thermo Fisher, Waltham, MA, USA) in 96-well-tissue culture plates for 48–72 h at 37 °C, in atmosphere containing 5% CO2, until the formation of a continuous confluent cell culture on the bottom of each well. […] The required concentrations were prepared in DMEM without antibiotics and serum and were added to the HT29/IPEC-1 cells in the wells, after washing with the same medium. The treated cells were then incubated for 24 h at 37 °C, in atmosphere containing 5% CO2. To assess the cell viability of the treated HT29/IPEC-1 cells, CCK8 assay (Dojindo Molecular Technologies, Tokyo, Japan) was realized according to the supplier recommendations. An amount of 150 µL of DMEM containing 7.5 µL of CCK-8 reagents were added to each well, and cells were incubated for 2 h. Plates were read at 450 nm in a microplate reader spectrophotometer (Xenius, Safas, Monaco).

[2] = Size (DLS) and zeta potential; assay type: physicochemical; details: pH 6.3; Alg NPs 500 µg/mL, DRS-B2 40 µg/mL
Protocol: The concentration of Alg NPs has been set to 500 µg/mL in order to allow a good dispersion and avoid any aggregation or sedimentation that could interfere with the adsorption. […]

[3] = system: E. coli 184
Protocol: (§1) The minimum inhibitory concentration (MIC) of the aforementioned formulations was determined in triplicate in 96-well microtiter plates using the broth microdilution method. Fresh colonies of E. coli were sub-cultured in Mueller–Hinton broth (Sigma-Aldrich) and were grown at 37 °C overnight on a rotary shaker at 160 rpm. […] The plates were incubated for 24 h at 37 °C, and inhibition of growth was measured at 600 nm with a spectrophotometer ELx808^tm (BioTek, Winoosky, VT, USA).
The ability of these new formulations to resist the conditions of the gastrointestinal tract (GIT) environment was determined as previously described. […]
To this end, we used pepsin, a digestive enzyme from the stomach, and active at pH 3, trypsin and chymotrypsin, which are synthesized in the pancreas and secreted in the small intestine, active between pH 6 and pH 8.

[4] = system: CHO (Chinese Hamster Ovary) cells; details: DRS-B2 at 39.7 µg/mL (10 µM); cited from earlier work
[5] = system: E. coli 184; assay type: cell-based, Escherichia coli; details: broth microdilution, Mueller-Hinton broth, 24 h, 37 °C, OD 600 nm, triplicate; MIC as lowest concentration of DRS-B2 peptide; colistin-resistant strain (mcr-1)
Protocol: (§2) The Escherichia coli (E. coli) strains used in this study included E. coli ATCC 8739 and E. coli 184, which is resistant to colistin. […] E. coli strains were grown at 37 °C in Brain Heart Infusion (BHI) medium (Sigma-Aldrich, St. Louis, MA, USA).
as §1

[6] = system: E. coli ATCC 8739; assay type: cell-based, Escherichia coli; details: broth microdilution, Mueller-Hinton broth, 24 h, 37 °C, OD 600 nm, triplicate; MIC as lowest concentration of DRS-B2 peptide; colistin-sensitive strain
Protocol: as §2, §1

[7] = system: MCF-7 (breast cancer) cells; details: MCF-7, inhibition of thymidine incorporation; cited from earlier work
From the text: Of note, though many peptides endowed with biological functions, such as inhibitory activities, could be hemolytic, their combination with nanoparticles frequently allows them to discard this adverse trait. Charpentier et al. focused on the cytotoxicity of dermaseptin B3 and B4 on mammalian cells. These authors evaluated dermaseptin B3 and B4 abilities to inhibit thymidine incorporation into transformed human MCF-7 (breast cancer) cells. The results obtained unveiled 50% cytotoxicity when DRS-B3 was used at 27.8 µg/mL (10 µM). However, Galanth et al. reported that wh ...

Substance | percentage of survival of IPEC-1 cell line ([1]; DRS-B2 at 30 µg/mL (alone or adsorbed on Alg NPs)) [%] | percentage of survival of IPEC-1 cell line ([1]; DRS-B2 at 125 µg/mL (alone or adsorbed on Alg NPs)) [%] | Zeta Potential (ζ) [2] | MICs of DRS-B2, Treatment with Pepsin ([3]; 30 min at pH 3 with pepsin (15 U/mL) and then 2 h at pH 6, 20 mM PBS, 39 °C at 140 rpm) [µg/mL] | MICs of DRS-B2, Treatment with Digestive Enzymes ([3]; 30 min at pH 3 with pepsin (15 U/mL) and then 2 h at pH 6 with trypsin (40 U/µL) + chymotrypsin (5 U/mL), 20 mM PBS, 39 °C at 140 rpm) [µg/mL] | MICs of DRS-B2, Treatment with pH Variation Only ([3]; incubation 30 min at pH 3 and then 2 h at pH 6, 20 mM PBS, 39 °C at 140 rpm, no enzymes) [µg/mL] | MICs of DRS-B2, Without Treatment ([3]; no physical or enzymatic treatment) [µg/mL] | toxic effect on CHO cells (in words) [4] | MIC E. coli 184 [5] [µg/mL] | MIC E. coli ATCC8739 [6] [µg/mL] | concentration giving 50% cytotoxicity [7] [ng/mL]
GLWSKIKEVGKEAAKAAAKAAGKAALGAVSEAV-NH2 [DRS-B2, Dermaseptin B2] | 87 | 68 | +23 mV | ≥10 | ≥10 | 10 | 7.5 | not any toxic effect | 7.5 | 3.75 | –
dermaseptin B3 [DRS-B3] | – | – | – | – | – | – | – | – | – | – | 27800
